SMILES strings stand for the structures.

Experimental findings from US20100105655A1, “NOVEL COMPOUNDS 515” (ASTRAZENECA AB, priority 2008, published 2010) are described below.

T1 sequence (P08069 31-1367): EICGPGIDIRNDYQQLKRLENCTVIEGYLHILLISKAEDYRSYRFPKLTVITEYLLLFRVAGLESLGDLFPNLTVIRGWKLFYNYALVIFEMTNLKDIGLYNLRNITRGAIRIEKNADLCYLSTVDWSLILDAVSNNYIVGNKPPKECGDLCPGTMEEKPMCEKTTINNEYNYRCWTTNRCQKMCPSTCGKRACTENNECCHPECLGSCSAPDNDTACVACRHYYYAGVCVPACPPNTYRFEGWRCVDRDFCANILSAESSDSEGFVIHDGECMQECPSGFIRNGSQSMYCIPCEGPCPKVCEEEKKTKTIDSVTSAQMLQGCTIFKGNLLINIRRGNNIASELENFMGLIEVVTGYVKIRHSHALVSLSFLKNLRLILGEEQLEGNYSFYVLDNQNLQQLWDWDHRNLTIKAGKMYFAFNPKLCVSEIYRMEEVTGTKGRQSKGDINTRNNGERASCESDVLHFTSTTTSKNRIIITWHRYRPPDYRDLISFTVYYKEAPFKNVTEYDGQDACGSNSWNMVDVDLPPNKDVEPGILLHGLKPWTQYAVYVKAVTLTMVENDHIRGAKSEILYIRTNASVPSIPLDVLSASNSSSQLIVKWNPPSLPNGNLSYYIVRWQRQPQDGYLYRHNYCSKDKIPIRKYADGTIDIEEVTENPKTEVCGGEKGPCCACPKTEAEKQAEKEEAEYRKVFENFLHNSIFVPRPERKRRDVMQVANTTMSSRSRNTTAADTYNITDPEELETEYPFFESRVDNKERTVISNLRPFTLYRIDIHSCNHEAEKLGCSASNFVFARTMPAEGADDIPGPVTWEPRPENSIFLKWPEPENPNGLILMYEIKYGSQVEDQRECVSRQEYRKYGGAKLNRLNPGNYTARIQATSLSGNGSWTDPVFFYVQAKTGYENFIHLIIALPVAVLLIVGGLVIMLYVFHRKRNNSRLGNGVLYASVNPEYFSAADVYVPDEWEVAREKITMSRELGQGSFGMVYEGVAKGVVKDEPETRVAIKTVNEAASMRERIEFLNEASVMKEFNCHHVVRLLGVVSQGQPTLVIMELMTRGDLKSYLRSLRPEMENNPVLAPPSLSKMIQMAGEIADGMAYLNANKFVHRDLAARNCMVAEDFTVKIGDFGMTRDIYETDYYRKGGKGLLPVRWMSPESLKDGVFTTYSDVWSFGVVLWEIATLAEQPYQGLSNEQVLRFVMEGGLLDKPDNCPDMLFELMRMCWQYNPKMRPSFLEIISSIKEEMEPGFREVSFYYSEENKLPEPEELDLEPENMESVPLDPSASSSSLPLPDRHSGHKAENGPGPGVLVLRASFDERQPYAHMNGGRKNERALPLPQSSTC

The experiment concerns the target T1, IGFR kinase (Homo sapiens, UniProt P08069).
T1 construct: purchased Millipore
The experiment is described as follows: Enzyme assay (c), IGFR kinase, Caliper LabChip. Format: biochemical. As to conditions: 30 nM IGFR kinase, 6 uM ATP, 3 uM peptide mix; read-out: IGFR IC50.
As for `COc1cc(CC(=O)N2CCN(CCO)CC2)ccc1Nc1ncc(Cl)c(-c2cnc3ccccn23)n1` [Example 37, 2-[4-[(5-chloro-4-imidazo[1,2-a]pyridin-3-yl-pyrimidin-2-yl)amino]-3-methoxy-phenyl]-1-[4-(2-hydroxyethyl)piperazin-1-yl]ethanone], the IC50 (usually the concentration that inhibits the measured activity by half) came out at 31 nM.
As for `COc1cc(CC(=O)N2CC[C@H](O)C2)ccc1Nc1ncc(Cl)c(-c2cnc3ccccn23)n1` [Example 38, 2-[4-[(5-chloro-4-imidazo[1,2-a]pyridin-3-yl-pyrimidin-2-yl)amino]-3-methoxy-phenyl]-1-[(3S)-3-hydroxypyrrolidin-1-yl]ethanone], the IC50 was 44 nM.
As for `COCC(=O)N1CCN(c2ccc(Nc3ncc(Cl)c(-c4cnc5ccccn45)n3)c(OC)c2)CC1` [Example 39, 1-[4-[4-[(5-chloro-4-imidazo[1,2-a]pyridin-3-yl-pyrimidin-2-yl)amino]-3-methoxy-phenyl]piperazin-1-yl]-2-methoxy-ethanone], the IC50 was found to be 12 nM.
Regarding `CCC(=O)N1CCN(c2ccc(Nc3ncc(Cl)c(-c4cnc5ccccn45)n3)c(OC)c2)CC1` [Example 42, 1-[4-[4-[(5-chloro-4-imidazo[1,2-a]pyridin-3-yl-pyrimidin-2-yl)amino]-3-methoxy-phenyl]piperazin-1-yl]propan-1-one], the IC50 amounted to 18 nM.
On to `COc1cc(N2CCN(C(=O)C3CC3)CC2)ccc1Nc1ncc(Cl)c(-c2cnc3ccccn23)n1` [Example 43, [4-[4-[(5-chloro-4-imidazo[1,2-a]pyridin-3-ylpyrimidin-2-yl)amino]-3-methoxyphenyl]piperazin-1-yl]-cyclopropylmethanone], for which the half-maximal inhibitory concentration (IC50) stood at 10 nM.
On to `COCCOC(=O)N1CCN(c2ccc(Nc3ncc(Cl)c(-c4cnc5ccccn45)n3)c(OC)c2)CC1` [Example 45, 2-methoxyethyl 4-[4-[(5-chloro-4-imidazo[1,2-a]pyridin-3-yl-pyrimidin-2-yl)amino]-3-methoxy-phenyl]piperazine-1-carboxylate], for which the IC50 amounted to 24 nM.
Turning to `COc1cc(N2CCN(C(=O)N3CCOCC3)CC2)ccc1Nc1ncc(Cl)c(-c2cnc3ccccn23)n1` [Example 46, [4-[4-[(5-chloro-4-imidazo[1,2-a]pyridin-3-yl-pyrimidin-2-yl)amino]-3-methoxy-phenyl]piperazin-1-yl]-morpholino-methanone], the half-inhibitory concentration (IC50) was 13 nM.
`COc1cc(N2CCN(C(=O)N(C)CCO)CC2)ccc1Nc1ncc(Cl)c(-c2cnc3ccccn23)n1` [Example 47.1, 4-[4-[(5-chloro-4-imidazo[1,2-a]pyridin-3-yl-pyrimidin-2-yl)amino]-3-methoxy-phenyl]-N-(2-hydroxyethyl)-N-methyl-piperazine-1-carboxamide]: the IC50 came out at 9 nM.
For the molecule `COc1cc(N2CCN(C(=O)N3CCNCC3)CC2)ccc1Nc1ncc(Cl)c(-c2cnc3ccccn23)n1` [Example 47.3, [4-[4-[(5-chloro-4-imidazo[1,2-a]pyridin-3-yl-pyrimidin-2-yl)amino]-3-methoxy-phenyl]piperazin-1-yl]-piperazin-1-yl-methanone], the IC50 was 6 nM.
Take `COc1cc(N2CCN(CCC#N)CC2)ccc1Nc1ncc(Cl)c(-c2cnc3ccccn23)n1` [Example 49, 3-[4-[4-[(5-chloro-4-imidazo[1,2-a]pyridin-3-yl-pyrimidin-2-yl)amino]-3-methoxy-phenyl]piperazin-1-yl]propanenitrile]: the 50% inhibitory concentration (IC50) was determined as 14 nM.
As for `COc1cc(N2CCN(C[C@H](C)O)CC2)ccc1Nc1ncc(Cl)c(-c2cnc3ccccn23)n1` [Example 50, (2S)-1-[4-[4-[(5-chloro-4-imidazo[1,2-a]pyridin-3-yl-pyrimidin-2-yl)amino]-3-methoxy-phenyl]piperazin-1-yl]propan-2-ol], the IC50 stood at 8 nM.
The value for `COc1cc(N2CCN(C[C@@H](C)O)CC2)ccc1Nc1ncc(Cl)c(-c2cnc3ccccn23)n1` [Example 51, (2R)-1-[4-[4-[(5-chloro-4-imidazo[1,2-a]pyridin-3-yl-pyrimidin-2-yl)amino]-3-methoxy-phenyl]piperazin-1-yl]propan-2-ol] was 8 nM.
In the case of `COc1cc(N2CCN(CC(C)(C)O)CC2)ccc1Nc1ncc(Cl)c(-c2cnc3ccccn23)n1` [Example 52, 1-[4-[4-[(5-chloro-4-imidazo[1,2-a]pyridin-3-yl-pyrimidin-2-yl)amino]-3-methoxy-phenyl]piperazin-1-yl]-2-methyl-propan-2-ol], the half-inhibitory concentration (IC50) was determined as 10 nM.
For the molecule `COc1cc(N2CCN(C[C@@H](O)CO)CC2)ccc1Nc1ncc(Cl)c(-c2cnc3ccccn23)n1` [Example 53, (2R)-3-[4-[4-[(5-chloro-4-imidazo[1,2-a]pyridin-3-yl-pyrimidin-2-yl)amino]-3-methoxy-phenyl]piperazin-1-yl]propane-1,2-diol], the IC50 came to 8 nM.
With `COc1ccc(N2CCN(C(N)=O)CC2)cc1Nc1ncc(Cl)c(-c2cnc3ccccn23)n1` [Example 55, 4-[3-[(5-chloro-4-imidazo[1,2-a]pyridin-3-yl-pyrimidin-2-yl)amino]-4-methoxy-phenyl]piperazine-1-carboxamide], the concentration for half-maximal inhibition (IC50) stood at 33 nM.
With `COc1cc(N2CCN(C(=O)[C@@H](O)CO)CC2)ccc1Nc1ncc(Cl)c(-c2cnc3ccccn23)n1` [Example 56, (2S)-1-[4-[4-[(5-chloro-4-imidazo[1,2-a]pyridin-3-yl-pyrimidin-2-yl)amino]-3-methoxy-phenyl]piperazin-1-yl]-2,3-dihydroxy-propan-1-one], the 50% inhibitory concentration (IC50) is 6 nM.
For the molecule `COc1cc(C2CCN(C(=O)N(C)C)CC2)ccc1Nc1ncc(Cl)c(-c2cnc3ccccn23)n1` [Example 57, 4-[4-[(5-chloro-4-imidazo[1,2-a]pyridin-3-yl-pyrimidin-2-yl)amino]-3-methoxy-phenyl]-N,N-dimethyl-piperidine-1-carboxamide], the half-inhibitory concentration (IC50) was found to be 6 nM.
With `COc1cc(C2CCN(C(=O)N(C)CCO)CC2)ccc1Nc1ncc(Cl)c(-c2cnc3ccccn23)n1` [Example 58, 4-[4-[(5-chloro-4-imidazo[1,2-a]pyridin-3-yl-pyrimidin-2-yl)amino]-3-methoxy-phenyl]-N-(2-hydroxyethyl)-N-methyl-piperidine-1-carboxamide], the IC50 is 6 nM.
`COc1cc(C2CCN(C(C)=O)C(C)C2)ccc1Nc1ncc(Cl)c(-c2cnc3ccccn23)n1` (stereo not drawn) [Example 59.1, 1-[4-[4-[(5-chloro-4-imidazo[1,2-a]pyridin-3-yl-pyrimidin-2-yl)amino]-3-methoxy-phenyl]-2-methyl-1-piperidyl]ethanone]: the IC50 stood at 17 nM.
For the molecule `COc1cc(C2CCNC(C)C2)ccc1Nc1ncc(Cl)c(-c2cnc3ccccn23)n1` (stereo not drawn) [Example 59.2, 5-chloro-4-imidazo[1,2-a]pyridin-3-yl-N-[2-methoxy-4-(2-methyl-4-piperidyl)phenyl]pyrimidin-2-amine], the IC50 worked out at 7 nM.
`COc1cc(OC2CN(C[C@H](C)O)C2)ccc1Nc1ncc(Cl)c(-c2cnc3ccccn23)n1` [Example 61, (2S)-1-[3-[4-[(5-chloro-4-imidazo[1,2-a]pyridin-3-yl-pyrimidin-2-yl)amino]-3-methoxy-phenoxy]azetidin-1-yl]propan-2-ol]: the half-maximal inhibitory concentration (IC50) was 21 nM.
The value for `COc1cc(OC2CN(C[C@@H](C)O)C2)ccc1Nc1ncc(Cl)c(-c2cnc3ccccn23)n1` [Example 62, (2R)-1-[3-[4-[(5-chloro-4-imidazo[1,2-a]pyridin-3-yl-pyrimidin-2-yl)amino]-3-methoxy-phenoxy]azetidin-1-yl]propan-2-ol] was 19 nM.
On to `COc1cc(OC2CN(CC(C)(C)O)C2)ccc1Nc1ncc(Cl)c(-c2cnc3ccccn23)n1` [Example 63, 1-[3-[4-[(5-chloro-4-imidazo[1,2-a]pyridin-3-yl-pyrimidin-2-yl)amino]-3-methoxy-phenoxy]azetidin-1-yl]-2-methyl-propan-2-ol], for which the IC50 worked out at 16 nM.
With `COc1cc(OC2CN(CCO)C2)ccc1Nc1ncc(Cl)c(-c2cnc3ccccn23)n1` [Example 64, 2-[3-[4-[(5-chloro-4-imidazo[1,2-a]pyridin-3-yl-pyrimidin-2-yl)amino]-3-methoxy-phenoxy]azetidin-1-yl]ethanol], the IC50 was determined as 19 nM.
As for `CNC(=O)CN1CCN(c2ccc(Nc3ncc(Cl)c(-c4cnc5ccccn45)n3)c(OC)c2)CC1` [Example 66, 2-[4-[4-[(5-chloro-4-imidazo[1,2-a]pyridin-3-yl-pyrimidin-2-yl)amino]-3-methoxy-phenyl]piperazin-1-yl]-N-methyl-acetamide], the IC50 was determined as 15 nM.
In the case of `COc1cc(N2CCN(CC(=O)N(C)CCO)CC2)ccc1Nc1ncc(Cl)c(-c2cnc3ccccn23)n1` [Example 67, 2-[4-[4-[(5-chloro-4-imidazo[1,2-a]pyridin-3-yl-pyrimidin-2-yl)amino]-3-methoxy-phenyl]piperazin-1-yl]-N-(2-hydroxyethyl)-N-methyl-acetamide], the 50% inhibitory concentration (IC50) was determined as 7 nM.
With `COc1cc(OC2CN(C(=O)N(C)CCO)C2)ccc1Nc1ncc(Cl)c(-c2cnc3ccccn23)n1` [Example 68, 3-[4-[(5-chloro-4-imidazo[1,2-a]pyridin-3-yl-pyrimidin-2-yl)amino]-3-methoxy-phenoxy]-N-(2-hydroxyethyl)-N-methyl-azetidine-1-carboxamide], the half-maximal inhibitory concentration (IC50) stood at 24 nM.
`COc1cc(OC2CN(C(=O)N(C)C)C2)ccc1Nc1ncc(Cl)c(-c2cnc3ccccn23)n1` [Example 69, 3-[4-[(5-chloro-4-imidazo[1,2-a]pyridin-3-yl-pyrimidin-2-yl)amino]-3-methoxy-phenoxy]-N,N-dimethyl-azetidine-1-carboxamide]: the half-maximal inhibitory concentration (IC50) is 32 nM.
With `COc1cc(N2CC[C@@H](N)C2)ccc1Nc1ncc(Cl)c(-c2cnc3ccccn23)n1` [Example 71, N-[4-[(3R)-3-aminopyrrolidin-1-yl]-2-methoxy-phenyl]-5-chloro-4-imidazo[1,2-a]pyridin-3-yl-pyrimidin-2-amine], the half-inhibitory concentration (IC50) was 10 nM.
The value for `COc1cc(N2CCN(C(C)=O)CC2)ccc1Nc1ncc(F)c(-c2cnc3ccccn23)n1` [Example 72, 1-[4-[4-[(5-fluoro-4-imidazo[1,2-a]pyridin-3-yl-pyrimidin-2-yl)amino]-3-methoxy-phenyl]piperazin-1-yl]ethanone] was 96 nM.
